Assay results taken from BindingDB's records for doi:10.1016/j.ejphar.2003.10.049 (University of Innsbruck, 2004).

How the values were obtained:
[1] = target: Delta-type opioid receptor (Rattus norvegicus, UniProt P33533)
[2] = target: Kappa-type opioid receptor (Rattus norvegicus, UniProt P34975)
[3] = target: Mu-type opioid receptor (Rattus norvegicus, UniProt P33535)
Mu-type opioid receptor, sequence (P33535 whole entry): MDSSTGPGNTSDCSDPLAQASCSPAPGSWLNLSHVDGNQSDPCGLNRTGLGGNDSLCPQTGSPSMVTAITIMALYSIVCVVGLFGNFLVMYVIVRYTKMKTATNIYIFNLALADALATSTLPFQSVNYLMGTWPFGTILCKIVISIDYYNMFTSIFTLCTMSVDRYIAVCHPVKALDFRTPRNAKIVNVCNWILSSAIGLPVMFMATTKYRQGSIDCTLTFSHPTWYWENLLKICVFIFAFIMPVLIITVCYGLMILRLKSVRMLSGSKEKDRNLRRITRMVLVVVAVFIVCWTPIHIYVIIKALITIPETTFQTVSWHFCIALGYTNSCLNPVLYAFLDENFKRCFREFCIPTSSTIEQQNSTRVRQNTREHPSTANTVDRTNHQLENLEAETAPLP

Kappa-type opioid receptor, sequence (P34975 whole entry): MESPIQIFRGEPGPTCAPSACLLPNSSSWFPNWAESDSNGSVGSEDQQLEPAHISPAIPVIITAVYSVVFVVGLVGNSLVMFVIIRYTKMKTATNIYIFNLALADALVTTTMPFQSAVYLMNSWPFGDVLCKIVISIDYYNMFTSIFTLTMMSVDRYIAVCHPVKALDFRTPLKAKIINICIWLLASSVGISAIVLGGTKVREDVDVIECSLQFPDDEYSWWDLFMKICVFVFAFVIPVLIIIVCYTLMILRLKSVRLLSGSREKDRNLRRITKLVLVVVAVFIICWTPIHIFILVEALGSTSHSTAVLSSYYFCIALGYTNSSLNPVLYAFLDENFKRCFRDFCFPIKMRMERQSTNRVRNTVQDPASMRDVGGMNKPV
Delta-type opioid receptor, sequence (P33533 whole entry): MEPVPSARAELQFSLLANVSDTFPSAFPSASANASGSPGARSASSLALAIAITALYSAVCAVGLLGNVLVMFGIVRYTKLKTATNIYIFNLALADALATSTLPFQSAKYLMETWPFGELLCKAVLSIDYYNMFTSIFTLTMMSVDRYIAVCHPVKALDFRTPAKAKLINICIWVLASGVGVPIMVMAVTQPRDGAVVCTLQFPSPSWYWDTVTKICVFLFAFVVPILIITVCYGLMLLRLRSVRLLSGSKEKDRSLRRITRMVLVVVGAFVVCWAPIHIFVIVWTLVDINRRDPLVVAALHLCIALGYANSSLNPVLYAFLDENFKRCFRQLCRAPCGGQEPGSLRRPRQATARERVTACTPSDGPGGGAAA

SMILES	Ki [1] [nM]	Ki [2] [nM]	Ki [3] [nM]
COC12CC[C@H](N[C@H](C)C(=O)O)[C@@H]3Oc4c(O)ccc5c4[C@@]31CCN(C)C2C5 (stereo partly drawn) [(2S)-2-[4,5alpha-epoxy-3-hydroxy-14beta-methoxy-17-methylmorphinan-6alpha-yl)amino]propanoic acid bis(tetrafluoroborate)]	26.9	142	
COC12CC[C@@H](N[C@H](C)C(=O)O)[C@@H]3Oc4c(O)ccc5c4[C@@]31CCN(C)C2C5 (stereo partly drawn) [(2S)-2-[4,5alpha-epoxy-3-hydroxy-14beta-methoxy-17-methylmorphinan-6beta-yl)amino]propanoic acid bis(tetrafluoroborate)]	7.71	63.7	
COC12CC[C@H](N[C@H](Cc3ccccc3)C(=O)O)[C@@H]3Oc4c(O)ccc5c4[C@@]31CCN(C)C2C5 (stereo partly drawn) [(2S)-2-[(4,5alpha-epoxy-3-hydroxy-14beta-methoxy-17-methylmorphinan-6alpha-yl)amino]-3-phenylpropanoic acid bis(tetrafluroborate)]		28.5	0.95
COC12CC[C@@H](N[C@H](Cc3ccccc3)C(=O)O)[C@@H]3Oc4c(O)ccc5c4[C@@]31CCN(C)C2C5 (stereo partly drawn) [(2S)-2-[(4,5alpha-epoxy-3-hydroxy-14beta-methoxy-17-methylmorphinan-6beta-yl)amino]-3-phenylpropanoic acid bis(tetrafluoroborate)]	1.03	151	2.58
CCO[C@@]12Cc3c([nH]c4ccccc34)[C@]3(C)Oc4c(O)ccc5c4[C@@]31CCN(CC1CC1)C2C5 [HS-378]		134	340
